Test results published in US11590118B2, “Methods and compositions for treating retina-associated disease using CCR3-inhibitors” (ALKAHEST INC., priority 2017, dated 2023).

Legend:
human CCR3 [1] = molecular target: T1, human CCR3 (Homo sapiens, UniProt P51677); experiment: receptor binding assay, human CCR3
T1 sequence (P51677 1-355): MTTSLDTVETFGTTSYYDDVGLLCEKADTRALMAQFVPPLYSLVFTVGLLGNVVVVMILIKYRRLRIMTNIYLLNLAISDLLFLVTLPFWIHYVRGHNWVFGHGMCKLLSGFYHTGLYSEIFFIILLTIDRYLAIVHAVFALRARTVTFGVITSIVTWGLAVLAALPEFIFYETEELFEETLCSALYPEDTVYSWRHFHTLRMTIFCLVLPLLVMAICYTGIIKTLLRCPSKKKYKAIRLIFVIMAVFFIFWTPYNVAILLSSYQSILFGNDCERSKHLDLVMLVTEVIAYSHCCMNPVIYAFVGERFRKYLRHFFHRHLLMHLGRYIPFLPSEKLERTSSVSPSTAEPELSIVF
Procedure: (§1) The antagonistic potency of the investigational product of the invention was determined in several human CCR3-dependent assays (FIG. 1). […] IC50 for a calcium influx assay using human CCR3-transfected CHEM1-Gα15 cells was determined to be 0.9±0.2 nM.

human CCR3 [2] = molecular target: T1, human CCR3; experiment: calcium influx assay using human CCR3-transfected CHEM1-Gα15 cells; assay type: cell-based
Procedure: as §1

rat CCR3 = molecular target: T2, rat CCR3 (Rattus norvegicus, UniProt O54814); experiment: receptor binding assay, rat CCR3
T2 sequence (O54814 1-359): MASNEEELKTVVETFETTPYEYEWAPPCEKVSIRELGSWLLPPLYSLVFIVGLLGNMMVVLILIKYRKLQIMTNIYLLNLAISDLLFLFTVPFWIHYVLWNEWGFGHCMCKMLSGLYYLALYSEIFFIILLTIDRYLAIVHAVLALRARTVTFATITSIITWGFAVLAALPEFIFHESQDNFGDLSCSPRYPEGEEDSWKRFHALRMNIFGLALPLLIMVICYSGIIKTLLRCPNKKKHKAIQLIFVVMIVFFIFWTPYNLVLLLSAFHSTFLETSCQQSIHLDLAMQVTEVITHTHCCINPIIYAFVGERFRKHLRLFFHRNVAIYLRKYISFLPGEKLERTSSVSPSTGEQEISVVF
Procedure: (§2) Potencies for several other mammalian species were also determined in different assays. Species included cynomolgus (macaque) monkeys, mouse, rat, and canines.

mouse CCR3 = molecular target: T3, mouse CCR3 (Mus musculus, UniProt P51678); experiment: receptor binding assay, mouse CCR3
T3 sequence (P51678 1-359): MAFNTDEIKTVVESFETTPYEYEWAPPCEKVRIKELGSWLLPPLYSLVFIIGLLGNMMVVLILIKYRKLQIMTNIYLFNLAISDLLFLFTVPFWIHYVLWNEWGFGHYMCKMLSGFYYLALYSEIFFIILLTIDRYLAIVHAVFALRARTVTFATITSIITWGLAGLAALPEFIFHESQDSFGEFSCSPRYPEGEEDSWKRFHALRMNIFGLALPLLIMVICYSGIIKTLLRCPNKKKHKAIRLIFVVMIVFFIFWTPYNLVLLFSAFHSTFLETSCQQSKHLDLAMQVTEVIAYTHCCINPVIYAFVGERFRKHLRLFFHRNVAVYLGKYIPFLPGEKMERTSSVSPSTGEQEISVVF
Procedure: as §2

[3] = tested on: subfoveal CNV secondary to wAMD; experiment: single-arm, open-label clinical study in treatment-naïve wAMD patients, 4 week regimen; assay type: in vivo, human; conditions: 400 mg orally twice daily for 4 weeks
Procedure: Patients with newly diagnosed (e.g. treatment-naïve) subfoveal CNV that was secondary to wAMD were entered into a single-arm, open-label study. Patients orally took 400 mg of the investigational drug of the invention b.o.d. (twice daily) for 4 weeks and had weekly scheduled visits with the physician. The regimen called for […]. After the end of treatment (EoT) or on withdrawal from the study medication, eligible patients could receive standard of care therapy (anti-VEGF therapy). Patients were followed up twice within 4 weeks after EoT. FIG. 2 is a depiction of the clinical trial design. Boxes V1, V2, V3, V4, and V5 indicate patient visits 1 through 5, respectively. Gaps between the boxes indicate the time in days between visits. The box labeled EoT indicates visit 6, or the end of treatment. Visits 7 and 8 occurred during the follow-up (FU) visits.
The primary endpoint was the change from baseline in central retinal thickness (CRT) as determined by spectral domain optical coherence tomography (SD-OCT) on day 29 (visit no. 6). For all primary and secondary endpoints, the value of the last assessment before first intake of study medication was used as the baseline on day 1 (visit no. 2).
CRT was reported as mean (SEM) in units of μm and time as visit number. The retinal layers and thickness was visualized and measured by SD-OCT, and to those having ordinary of skill in the art and trained using OCT equipment, visualization and measurement of the retinal layers involve well-known techniques. […]
The retinal vasculature of the study eye was evaluated via fluorescein angiography (FA). The change in neovascular leakage by FA was determined on Day 29 (visit 6) compared to baseline. […] N is the number of patients evaluated.
Visual acuity was determined using ETDRS charts over time of treatment. The absolute change in numbers of letters read by patients from their baseline levels was evaluated during visits. […]

human CCR3 [4] = molecular target: T1, human CCR3; experiment: human eotaxin-1 induced eosinophil shape change in human whole blood; assay type: cell-based; conditions: read-out: IC50, antagonism of human eotaxin-1 induced eosinophil shape change
Procedure: as §1

Question: With Cc1cc(C(=O)N(C)C)cc(NC(=O)[C@H]2CCC(=O)N2C2CCN(Cc3ccc(Cl)c(C)c3)CC2)n1 [investigational product of the invention] as the molecule, how does the IC50 (human CCR3 [1]) read?
Answer: 0.004 ± 0.0018 µM

Question: What about the Ki (human CCR3 [1]) of the same molecule?
Answer: 0.0032 ± 0.0006 µM

Question: And the IC50 (human CCR3 [2])?
Answer: 0.0009 ± 0.0002 µM

Question: And the IC50 (rat CCR3)?
Answer: 1.72 ± 0.13 µM

Question: And the Ki (rat CCR3)?
Answer: 1.49 ± 0.128 µM

Question: What about the IC50 (mouse CCR3) of the same molecule?
Answer: 0.0873 ± 0.0056 µM

Question: What about the Ki (mouse CCR3) of the same molecule?
Answer: 0.1243 ± 0.0009 µM

Question: What about the “change from baseline in central retinal thickness (CRT) by SD-OCT” value ([3]; median or mean CRT through the treatment phase) of the same molecule?
Answer: no significant change from baseline

Question: And the “change from baseline in neovascular leakage by fluorescein angiography” value ([3]; median or mean values through the treatment phase)?
Answer: no significant change from baseline

Question: What about the “best corrected visual acuity (BCVA), change in letters read, ETDRS charts” value ([3]; subset of 8 out of 14 patients, compared to sham control and the larger patient group) of the same molecule?
Answer: significant improvement

Question: What about the IC50 (human CCR3 [4]) of the same molecule?
Answer: 0.0425 ± 0.0435 µM
